# Test results: patent US20220313651A1, “INHIBITORS OF ZIKA VIRUS INFECTION” (priority 2019, published 2022)
# Tests used:
# [1] = system: ZIKV human strain R116265 (2016/Mexico); test: Plaque reduction inhibition assay in Vero E6 cells, ZIKV R116265; format: cell-based, Zika virus (ZIKV); conditions: Table 7, gossypol derivatives, read-out: ZIKV strains IC50, R116265
# Excerpt: Vero E6 and LLC-MK2 cells were maintained in Dulbecco's Modified Eagle Medium (DMEM) supplemented with 8% fetal bovine serum (FBS) and penicillin and streptomycin (P/S). C6/36 cells were maintained in Eagle's Minimal Essential Medium (EMEM) supplemented with 5% FBS and P/S. ZIKV strains, including human strains PAN2016 (2016/Panama), R116265 (2016/Mexico), PAN2015 (2015/Panama), FLR (2015/Colombia), R103451 (2015/Honduras), PRVABC59 (2015/Puerto Rico), PLCal_ZV (2013/Thailand), and IbH 30656 (1968/Nigeria), mosquito strain MEX 2-81 (2016/Mexico), and rhesus macaque strain MR 766 (1947/Uganda), were used in the studies. These ZIKV strains were cultured in Vero E6 cells, and viral titers were detected by a standard plaque-forming assay. DENV human strains, including type 1: DENV-1-V1792 (2007/Vietnam), type 2: DENV-2-V594 (2006/Puerto Rico), type 3: DENV-3-V1043 (2006/Puerto Rico), and type 4: DENV-4-PR 06-65-740 (2006/Puerto Rico), were cultured in C6/36 cells, and the viral titers were determined by plaque-forming assay as described above.
# A plaque reduction inhibition assay was carried out to measure the inhibitory activity of Z-medicaments against infections of ZIKV and DENV. […] The compound-virus mixtures were then transferred to Vero E6 cells (10^5/well) and incubated at 37° C. for 1 h. […] The cells were washed thoroughly with PBS, and overlaid with DMEM containing 1% carboxymethyl cellulose and 2% FBS, followed by in vitro culture at 37° C. for 4-5 days and then staining with 0.5% crystal violet.
# After removal of the unbound compounds by centrifugation after addition of 3% PEG-6000, ZIKV was incubated with Vero E6 cells at 37° C. for 1 h. The cells were then washed with PBS, overlaid with DMEM containing 1% carboxymethyl cellulose and 2% FBS, and cultured at 37° C. for 4-5 days, followed by staining with 0.5% crystal violet.
# [2] = system: ZIKV human strain R116265; test: ZIKV vertical transmission in pregnant Ifnar1-/- mice; format: in vivo; conditions: 20 mg/kg i.p.
# Procedure: Pregnant mice (at embryonic day (E) 12-14) were i.p. treated with ST087010 (20 mg/kg) or DMSO (control) 12 h before and 6, 24 and 48 after infection with ZIKV human strain R116265 (10^3 PFU/mouse). Viral titers were detected, by plaque assay, in sera (FIG. 9A), placenta (FIG. 9B), fetal brain (FIG. 9C), and amniotic fluid (FIG. 9D) at 5 days post infection (dpi). The data are expressed as mean±s.e.m. of mice in each group (n=5), and significant differences among different groups are shown. The detection limit is 25 PFU/ml (for sera and amniotic fluid), or 25 PFU/g (for placenta and fetal brain). Representative images of morphology of mouse uteri and fetuses at 5 dpi are shown. FIG. 9E depicts E17-19 uteri from pregnant mice challenged at E12-14. Fetal morphology (FIG. 9F) and fetal size (FIG. 9G) were detected. ZIKV or caspase-3 signals were measured in placentas by immunofluorescence staining (FIG. 9H). ZIKV and caspase-3 were stained with anti-ZIKV and anti-active caspase-3 antibodies, respectively. Nuclei were stained with DAPI. Representative images of immunofluorescence staining are shown. Magnification, 63×, and scale bar 10 μm.
# ST087010 was evaluated for protection against ZIKV-caused fetal damage and death in pregnant Ifnar1^−/− mice. Briefly, groups of 5 pregnant mice (10- to 12-weeks old, E12-14) were injected intraperitoneally with ST087010 (20 mg/kg of body weight), or DMSO (control) 12 h before and 6, 24 and 48 h after i.p. infection with ZIKV (human strain R116265, 10^3 PFU). Five days post-infection, mice were sacrificed; viral titers were determined using plaque assay in sera, placenta, fetal brain and amniotic fluid, and uteri and fetuses were evaluated for morphological and size changes. Placenta was also assessed for apoptosis and viral replication by immunofluorescence staining.
# Immunofluorescence staining was carried out to detect ZIKV and caspase-3 signals in ZIKV-infected mouse tissues. […] The slides were analyzed using a confocal microscope (Zeiss LSM 880) and ZEN software, and fluorescent signals were quantified by ImageJ software. […]
# ZIKV NS2B-NS3 protein = target: T1, ZIKV NS2B-NS3 protein (Zika virus, UniProt Q32ZE1); test: SPR binding to ZIKV NS2B-NS3 protein; conditions: 1:1 binding model, read-out: Binding affinity (KD) to ZIKV NS2B-NS3 protein
# T1 construct: 49-97) and NS2 protein (residues 1-185) through a covalent; made in house; host or cells: E. coli
# Procedure: The interactions between the Z-medicaments and ZIKV full-length E or NS2B-NS3 protease were analyzed at 25° C. using the Biacore T200 system. Briefly, ZIKV E or NS2B-NS3 protein was immobilized on a sensor chip (CM5) using the Amine Coupling Kit. The disclosed Z-medicaments at various concentrations were subsequently injected as analytes, and PBS-P (20 mM phosphate buffer containing 2.7 mM KCl, 137 mM NaCl, and 0.05% surfactant P20, pH 7.4) was used as the running buffer. The data were analyzed using Biacore evaluation software (T200 version 1.0), and the curve was fitted with a 1:1 binding model.
# Briefly, ZIKV EDIII protein or NS2B-NS3 protein were immobilized on a sensor chip (CM5) using Amine Coupling Kit. […] Biacore BK evaluation software (version 1.1) was applied to analyze the data, and the curve was fitted with a 1:1 binding model.
# [3] = target: T2, binding between ZIKV EDIII and EDI/II-specific mAb ZKA78 (Zika virus, UniProt Q32ZE1, D679E/I627V/V603I/V629A); test: ELISA competition, control EDI/II-specific mAb ZKA78; conditions: ZKA78 does not bind EDIII
# T2 construct: human Fc (C)
# Procedure: ELISA was also used to determine the ability of ST087010 in inhibition of the binding between ZIKV EDIII and EDIII-specific human mAbs (SMZAb5, ZKA64-LALA, ZV-67, or Z004) or EDI/II-specific human mAb (ZKA78) control. […] The plates were then sequentially incubated with HRP-conjugated anti-human IgG-Fab antibody and TMB substrate, followed by detection of A450 values. Percent inhibition (% inhibition) of compounds was calculated based on the ELISA results, and IC50 was obtained […].
compound,measurement,setting,value
Cc1cc2c(C(C)C)c(O)c(O)c(/C=N/n3c(=O)[nH][nH]c3=O)c2c(O)c1-c1c(C)cc2c(C(C)C)c(O)c(O)c(/C=N/n3c(=O)[nH][nH]c3=O)c2c1O [ST087010],IC50,[1],2.91 ± 0.07 µM
same,ZIKV+ or caspase-3 signals in placental tissues,"[2]; ZIKV R116265, immunofluorescence, vs DMSO",undetectable or diminished
same,Condition of fetuses and uteri morphology,"[2]; pregnant mice E12-14, ZIKV R116265 10^3 PFU, 5 dpi",all in good condition
same,"Viral titers in sera, placenta, fetal brain and amniotic fluid","[2]; pregnant mice E12-14, ZIKV R116265 10^3 PFU, 5 dpi, vs DMSO",significantly reduced
same,Kd,ZIKV NS2B-NS3 protein,19.9 µM
same,Effect on binding of EDI/II-specific mAb ZKA78 (control),[3],no observable effect
